Results: patent US20210330611A1, “THERAPY FOR NEUROLOGICAL DISEASES/DISORDERS” (priority 2020, published 2021)
Like-named read-outs stand apart in the source and are kept apart here.

Columns and labels:
[1] = tested on: fibrin-induced microglia activation; experiment: Image-based assay of fibrin-induced microglia activation (HTS and dose response); assay type: cell-based, rat
intracellular GSH = assay type: cell-based, mouse
Method: Real-time imaging of glutathione. The real-time GSH dynamics in living BMDMs was determined with the fluorescent GSH probe, RealThiol RT-AM as described (37). Cells were plated on 2-well chamber slide (Nunc) pre-coated with 25 μg/ml fibrin. Cells were stimulated with fibrin with or without 5 μM acivicin or GGsTop. The GSH synthesis inhibitor, buthionine sulfoximine (BSO, Sigma-Aldrich) was used as positive control for reducing intracellular GSH levels at 100 μM. After 24 h incubation, cells were loaded with 1 μM RT-AM probe and were incubated for 5 min before imaging. The cells were kept at 37° C. during the entire experiment. […] For each independent experiment, laser power and detector settings were set using the control/untreated cells incubated with RT-AM alone as reference. All settings were kept constant throughout the experiment. […] The ratio calculated for each treatment was expressed as percentage from that of the untreated cells (control).

primary microglia = assay type: cell-based, rat; conditions: 48 h, FIG. 12
Method: FIGS. 12A-E. Effects of acivicin on microglia, macrophage and whole blood cell numbers. a, Representative images showing morphology and density of primary microglia treated with vehicle or acivicin for 48 h stained with nuclei marker Hoechst or CellMask Red Whole Cell Stain. Quantification of the total number of microglia. Data are representative of one experiment with technical replicates (open symbols). b, Representative confocal images showing morphology and density of control- and acivicin-treated BMDMs treated for 24 h. Scale bar, 100 μm. Insets depict digitally zoomed in areas of regions of interest. Quantification of the total number of BMDMs in the field of view. […] Cell viability of single CD45^+ cells was assessed by Sytox blue live/dead nuclei stain. Quantification of percent cell viability of CD45^+ BMDMs treated with acivicin or left untreated. Data are from 2 independent experiments with n=4 mice per group (mean±s.d.). d, Quantification of complete blood count analysis of white blood cells (WBCs), red blood cells (RBC), platelets (PLT) (left) and composition of WBCs (right) of blood samples from healthy mice treated with saline or acivicin for 10 days. […] Quantification of total microglia cell numbers in healthy mice treated with acivicin or saline. […]
Image-based HTS of small molecule inhibitors of microglia activation. […] The plates were stored in PBS for readout by imaging.

MOG35-55 EAE = experiment: Active MOG35-55 EAE, clinical scores; assay type: in vivo, mouse; conditions: mouse, in vivo, 5 mg/kg
GGT = GGT activity in substantia nigra after stereotactic LPS injection; assay type: in vivo, mouse; conditions: 5 mg/kg i.p., 12 h after LPS, FIG. 15a
Method: Stereotactic LPS injection and drug treatment. Mice were anaesthetized with isoflurane and placed in a stereotactic apparatus (David Kopf Instruments). LPS (Sigma-Aldrich) was dissolved in endotoxin-free distilled water (HyClone) and was diluted to 1 μg/ml with PBS. LPS (2 μl of 1 μg/ml) or PBS was slowly injected (0.3 μl/min) using a 10-μl Hamilton syringe attached to a 33-G needle into the substantia nigra at coordinates (anteroposterior, 3.0 mm; mediolateral, 1.3 mm; dorsoventral, 4.7 mm from the bregma, according to Paxinos and Watson) Animals received acivicin (5 mg/kg) or saline intraperitoneally beginning 5 days before LPS injection and for 7 days after LPS injection. After 12 h of the LPS injection, the substantia nigra area was immediately collected on ice and kept at −80° C. for later analysis of GGT activity. After 7 d of the LPS injection, mice were perfused with 4% PFA, and the brains were post-fixed in 4% PFA overnight at 4° C. […] Images were acquired with all-in-one BZ-X700 fluorescence microscope. Images were quantified using NIH ImageJ (version 1.50) by blinded observers.

in vitro = conditions: rat

N[C@H](C(=O)O)[C@@H]1CC(Cl)=NO1 [Acivicin, (2S)-2-amino-2-[(5S)-3-chloro-4,5-dihydro-1,2-oxazol-5-yl] acetic acid]
IC50 ([1]; Rattus norvegicus, Microglia, 48 h, Table 1, dose response 0.001-20 μM, triplicates, primary rat microglia, 48 h, read-out: Fibrin IC50): 2 µM | IC50 ([1]; Rattus norvegicus, Microglia, Table 7, read-out: fib_IC50): 0.57 µM | IC50 ([1]; Rattus norvegicus, Microglia, dose response, fibrin-induced microglia activation, read-out: Fibrin IC50): 2 µM | IC50 ([1]; Rattus norvegicus, Microglia, fibrin-induced microglia activation, dose response, read-out: Fibrin IC50 (uM) (Suppl. Table 7)): 2 µM | inhibition at 10 µM ([1]; Rattus norvegicus, Microglia, primary microglia HTS, fibrin stimulation, increased cell size (>800 μm^2) as marker of activation, read-out: Fibrin % inhibition): 90% | fibrin-induced microglial activation ([1]; dose-dependent, FIG. 6a): inhibited | fibrin-induced degradation of glutathione (RealThiol F405/F488) (intracellular GSH): inhibited | microglia cell number in vitro (primary microglia): did not affect | disease onset and severity (MOG35-55 EAE): delayed | GGT activity in SN after LPS injection (GGT): blocked | IC50 (in vitro): > 20 µM
